Measured values reported in US20020115659A1, “Compounds having heterocyclic groups containing two nitrogen atoms for treating multidrug resistance” (priority 2000, published 2002).

System: NIH-MDR1-G185 cells
Assay: Fluorescent substrate accumulation assay (BODIPY-FL Taxol accumulation)
Assay type: cell-based
Conditions: MDR modulator 10 micromolar, 15 min preincubation; BODIPY-FL Taxol 500 nM, 40 min at 37° C.; fluorescence in presence/absence of modulator
Method: NIH-MDR1-G185 cells (obtained from M. Gottesman, NIH) were harvested and resuspended in RPMI-1640 containing L-glutamine, 10% Cosmic Calf Serum and penicillin-streptomycin. Cell suspension aliquots of 175 microliters (1×10^5 cells) were added to individual wells of a 96 well microtiter plate and preincubated for 15 min at 37° C. with 20 microliter MDR modulator diluted in cell culture media to give a final concentration of 10 micromolar. Control wells received no modulating agent. BODIPY-FL Taxol (Molecular Probes, Eugene, Oreg.) was added to each well in 10 microliter aliquots to give a final concentration of 500 nM and cells were incubated for 40 min at 37° C. Cells were centrifuged at 100× g for 5 min at 4° C. and the cell pellet washed with 200 microliters cold PBS to remove fluorescent medium from wells. Cells were centrifuged once more, media removed, and cells resuspended in 200 microliters cold PBS. Fluorescence accumulation was measured in a fluorescence plate reader fitted with an excitation filter of 485 nm and an emission filter of 538 rn. BODIPY-FL taxol accumulation in the cells was calculated as follows:
Accumulation Index=(fluorescence in NIH-MDR1-G185 cells in the presence of modulator)/(fluorescence in NIH-MDR1-G185 cells in absence of modulator)
Accumulation Index of various compounds prepared above was tested according to the method in Reference Example 3.

O=C(C(CCCc1ccccc1)CCCc1ccccc1)N1CCCCN(C[C@@H](O)COc2cccc3ncccc23)C1 [Example 5]
Accumulation Index: 12

COc1ccc(S(=O)(=O)N2CCC(=O)N(c3ccccc3)C2C(=O)N2CCN(C(c3ccccc3)c3ccccc3)CC2)cc1OC (centres unmarked) [Example 12]
Accumulation Index: 7
